The values below are quoted from earlier work in patent US20240127967A1.

This data set concerns MARV. The following applies: mouse, in vivo; cited from earlier work.

On to `CC(C)COCC(CN(Cc1ccccc1)c1ccccc1)N1CCCC1` (stereo not shown) [Bepridil], for which the protection of mice entry is on record as “strongly protected”.
